Measured values published in patent US11311568B2, “Therapeutic pharmaceutical composition for cancer including miRNA” (Purmx Therapeutics, Inc., priority 2017, dated 2022).

Columns and labels:
Assay in all cases: Screening in cancer cell strains, cell survival rate with PrestoBlue
Assay type in all cases: cell-based
[1] = system: large intestine cancer cell strain HCT116 (p53 deletion); settings: Day 5 after transfection with RNAiMAX, compared with miR-34a-5p
Experimental: (§1) The 349 types of aging induction miRNA (mirVana; Ambion) obtained from screening were transfected into various cancer cell strains (large intestine cancer cell strain HCT116 (p53 wildtype and p53 deletion), pancreatic cancer cell strains BxPC-3 and CFPAC-1, and tongue cancer cell strain HSC-4) with an auto dispenser Bravo (Agilent).
(§2) Transfection was carried out with the following protocol.
(§3) 1: To 70 μL of serum free medium (SFM) was added 0.35 μL of RNAiMAX (Invitrogen).
(§4) 2: The solution from 1 was added to a 96-well plate (μ-plate; ibidi) with Bravo.
(§5) 3: To 2 was added 0.7 μL of miRNA (Stock Conc. 200 nM) with Bravo, and this was mixed by pipetting.
(§6) 4: This was incubated at room temperature for 20 minutes.
(§7) 5: A cell suspension diluted to 3.5×10^4 cells/mL was dispensed at 70 μL each with Bravo.
(§8) 6: This was incubated at 37° C. under 5% CO2 condition.
(§9) Setting the day of transfection as Day 0, on Day 5 the cell survival rate was evaluated with PrestoBlue (Invitrogen). The operating protocol is shown below.
(§10) 1. The medium was exchanged to a medium comprising PrestoBlue diluted 20-folds, and this was incubated at 37° C. for 1 hour. 2. The fluorescence value (Ex/Em=560 nm/590 nm) was measured with Enspire (Perkin Elmer).
(§11) 3. The cell survival rate was determined by setting the fluorescence value obtained from the well with only the reagent as the background.

[2] = system: large intestine cancer cell strain HCT116 (p53 wildtype); settings: Day 5 after transfection with RNAiMAX, compared with miR-34a-5p
Experimental: as §1, §2, §3, §4, §5, §6, §7, §8, §9, §10, §11

[3] = system: pancreatic cancer cell strain BxPC-3; settings: BxPC-3, Day 5 after transfection with RNAiMAX, compared with miR-34a-5p
Experimental: as §1, §2, §3, §4, §5, §6, §7, §8, §9, §10, §11

[4] = system: pancreatic cancer cell strain CFPAC-1; settings: CFPAC-1, Day 5 after transfection with RNAiMAX, compared with miR-34a-5p
Experimental: as §1, §2, §3, §4, §5, §6, §7, §8, §9, §10, §11

[5] = system: tongue cancer cell strain HSC-4; settings: HSC-4, Day 5 after transfection with RNAiMAX, compared with miR-34a-5p
Experimental: as §1, §2, §3, §4, §5, §6, §7, §8, §9, §10, §11

Substance	suppression of cell proliferation (cell survival rate, PrestoBlue) [1]	suppression of cell proliferation (cell survival rate, PrestoBlue) [2]	suppression of cell proliferation (cell survival rate, PrestoBlue) [3]	suppression of cell proliferation (cell survival rate, PrestoBlue) [4]	suppression of cell proliferation (cell survival rate, PrestoBlue) [5]
miR-137-3p: Mature-miRNA, UUAUUGCUUAAGAAUACGCGUAG (SEQ ID NO. 5) (listed as RNA, chemistry not given here; listed as Homo sapiens)	suppress cell proliferation more significantly than miR-34-5p	suppress cell proliferation more significantly than miR-34-5p	suppress cell proliferation more significantly than miR-34-5p	suppress cell proliferation more significantly than miR-34-5p	suppress cell proliferation more significantly than miR-34-5p
miR-631-5p: Mature-miRNA, AGACCUGGCCCAGACCUCAGC (SEQ ID NO. 8) (listed as RNA, chemistry not given here; listed as Homo sapiens)	suppress cell proliferation more significantly than miR-34-5p	suppress cell proliferation more significantly than miR-34-5p	suppress cell proliferation more significantly than miR-34-5p	suppress cell proliferation more significantly than miR-34-5p	suppress cell proliferation more significantly than miR-34-5p
miR-657-3p: Mature-miRNA, GGCAGGUUCUCACCCUCUCUAGG (SEQ ID NO. 11) (listed as RNA, chemistry not given here; listed as Homo sapiens)	suppress cell proliferation more significantly than miR-34-5p	suppress cell proliferation more significantly than miR-34-5p	suppress cell proliferation more significantly than miR-34-5p	suppress cell proliferation more significantly than miR-34-5p	suppress cell proliferation more significantly than miR-34-5p
